Test system: LPS induced rat ARDS model
Assay: Therapeutic effect on lipopolysaccharide (LPS) induced rat ARDS model
Format: in vivo
Excerpt: The therapeutic effect of N-(2-ethylsulfonylamino-5-trifluoromethyl-3-pyridyl)cyclohexanecarboxamide sodium salt hydrate (hereinafter referred to as compound 1) on LPS induced rat ARDS model was examined.
The compound 1 was used as a drug formulation. The formulation composition (content per one vial) was as follows.
To Crj: CD(SD)IGS male rats (7 weeks old) (Charles River Japan Inc.), LPS (derived from Salmonella enteritidis; L6011, Lot. 27H4127, manufactured by Sigma) diluted with a phosphate buffer solution (PBS) was administered by spraying it on the trachea in a dose of 8 mg/kg (0.5 ml/rat) by means of an atomizer (endotracheal liquid atomizing apparatus 1A-1B, manufactured by Penn Century) to induce ARDS. For normal group rats, PBS was similarly sprayed.
A drug formulation of the compound 1 diluted with 5% glucose was subcutaneously administered continuously in a dose of 0.3 mg/kg/hr as calculated as anhydride of the compound 1 by means of an osmotic pump from immediately after the induction to the time of autopsy (24 hours after). To non-treated group rats, 5% glucose used as the solvent was administered similarly.
24 Hours after the administration of LPS, measurement of the body weight and the lung wet weight, biochemical examination of blood and pathological and histopathological examinations were carried out with respect to every surviving rats.
No death was confirmed 24 hours after the LPS administration, and thus various examinations were carried out with respect to every rat. Here, the pathological score was obtained by evaluating each rat in five stages of −(no significant lesion), ±(slight), +(mild), ++(moderate) and +++(marked), and allotting 0, 0.5, 1, 2 and 3 points, respectively, to obtain the average of each group.

[1] = Crj:CD(SD)IGS male rats, LPS 8 mg/kg on the trachea, 0.3 mg/kg/hr x 24 hr subcutaneous by osmotic pump, 24 hours after LPS, score 0-3, non-treated group 2.7, P < 0.01 vs. non-treated group
[2] = Crj:CD(SD)IGS male rats, LPS 8 mg/kg on the trachea, 0.3 mg/kg/hr x 24 hr subcutaneous by osmotic pump, 24 hours after LPS, score 0-3, non-treated group 2.8, P < 0.01 vs. non-treated group

**Q.** `CCS(=O)(=O)Nc1ncc(C(F)(F)F)cc1NC(=O)C1CCCCC1.O.[Na]` [Compound 1, N-(2-ethylsulfonylamino-5-trifluoromethyl-3-pyridyl)cyclohexanecarboxamide sodium salt hydrate] was tested. Which “Histopathological findings of alveoli: Collapse of alveolar wall (average of score in each group), Mean” value [1] did it give?
**A.** 1.2

**Q.** And the “Histopathological findings of alveoli: Hemorrhage in alveoli (average of score in each group), Mean” value [1]?
**A.** 1.5

**Q.** And the “Histopathological findings of alveoli: Alveolar edema (average of score in each group), Mean” value [2]?
**A.** 1.4

**Q.** What about the “Histopathological findings of alveoli: Fibrin deposit in alveoli (average of score in each group), Mean” value [2] of the same compound?
**A.** 1.5

**Q.** And the “Autopsy findings of lung: Edema (average of score in each group), Mean” value (Crj:CD(SD)IGS male rats, LPS 8 mg/kg on the trachea, 0.3 mg/kg/hr x 24 hr subcutaneous by osmotic pump, autopsy 24 hours after LPS, score 0, 0.5, 1, 2, 3 for -, ±, +, ++, +++, non-treated group 0.4)?
**A.** 0.1

**Q.** And the “Autopsy findings of lung: Hemorrhage (average of score in each group), Mean” value (Crj:CD(SD)IGS male rats, LPS 8 mg/kg on the trachea, 0.3 mg/kg/hr x 24 hr subcutaneous by osmotic pump, autopsy 24 hours after LPS, score 0-3, non-treated group 1.0)?
**A.** 0.5

**Q.** What about the “Autopsy findings of lung: Congestion (average of score in each group), Mean” value (Crj:CD(SD)IGS male rats, LPS 8 mg/kg on the trachea, 0.3 mg/kg/hr x 24 hr subcutaneous by osmotic pump, autopsy 24 hours after LPS, score 0-3, non-treated group 2.8, P < 0.01 vs. non-treated group) of the same compound?
**A.** 2.2

**Q.** And the “Collapse of the alveolar wall, alveolar edema and hemorrhage, and fibrin deposit in the alveoli” value (LPS induced rat ARDS model, compound 1 administered group (0.3 mg/kg/hr subcutaneous, 24 hours) compared with non-treated group, result in words)?
**A.** reduced

**Q.** What about the “Inhibition effect against ARDS pathological progress” value (LPS induced rat ARDS model, compound 1 administered group (0.3 mg/kg/hr subcutaneous, 24 hours), result in words) of the same compound?
**A.** remarkable inhibition effect
